Measurements published in ChEMBL document CHEMBL3886943, “C2-azaspiro iminothiazine dioxides as BACE inhibitors, compositions, and their use” (2016).

Columns and labels:
Beta-secretase 2 = biological target: T1, Beta-secretase 2 (Homo sapiens, UniProt Q9Y5Z0); assay: DMSO is present at 5% final concentration in the assay. Following laser excitation of sample wells at 320 nm, the fluorescence signal at 620 nm is collected for 400 ms following a 50 us delay on a RUBYstar HTRF plate reader (BMG Labtechnologies). Raw RFU data is normalized to maximum (1.0 nM BACE/DMSO) and minimum (no enzyme/DMSO) RFU values. […] The Ki values are calculated from the IC50 using the Cheng-Prusoff equation.
T1 sequence (Q9Y5Z0 whole entry): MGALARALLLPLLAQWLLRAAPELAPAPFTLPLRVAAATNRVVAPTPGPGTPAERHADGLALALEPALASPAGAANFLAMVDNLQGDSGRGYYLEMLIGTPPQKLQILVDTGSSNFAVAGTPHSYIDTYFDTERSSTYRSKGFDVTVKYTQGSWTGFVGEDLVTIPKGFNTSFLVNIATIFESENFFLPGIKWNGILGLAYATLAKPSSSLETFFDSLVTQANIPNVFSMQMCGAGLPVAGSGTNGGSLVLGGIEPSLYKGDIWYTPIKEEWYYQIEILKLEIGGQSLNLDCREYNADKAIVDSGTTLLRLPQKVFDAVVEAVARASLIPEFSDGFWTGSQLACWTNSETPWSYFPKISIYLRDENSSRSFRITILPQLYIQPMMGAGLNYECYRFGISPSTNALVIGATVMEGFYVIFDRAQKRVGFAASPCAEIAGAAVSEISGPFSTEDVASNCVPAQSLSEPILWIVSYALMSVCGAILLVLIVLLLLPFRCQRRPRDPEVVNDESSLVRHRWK

Beta-secretase 1 = Beta-secretase 1 (Homo sapiens, UniProt P56817); assay: This assay monitors the increase of 620 nm fluorescence that resulted from BACE1 cleavage of an APPswedish APPswe mutant peptide FRET substrate (QSY7-[…]-Europium-amide). This substrate contains an N-terminal QSY7 moiety that serves as a quencher of the C-terminal Europium fluorophore (620 nm Em). […] Reactions are initiated by addition of 10 ul of 600 nM QSY7-APPswe-Eu substrate (200 nM final) to give a final reaction volume of 30 ul in a 384 well Nunc HTRF plate. The reactions are incubated at 30° C. for 1.5 hours. The 620 nm fluorescence is then read on a Rubystar HTRF plate reader (BMG Labtechnologies) using a 50 millisecond delay followed by a 400 millisecond acquisition time window. Inhibitor IC50 values are derived from non-linear regression analysis of concentration response curves.
Sequence of Beta-secretase 1 (P56817 whole entry): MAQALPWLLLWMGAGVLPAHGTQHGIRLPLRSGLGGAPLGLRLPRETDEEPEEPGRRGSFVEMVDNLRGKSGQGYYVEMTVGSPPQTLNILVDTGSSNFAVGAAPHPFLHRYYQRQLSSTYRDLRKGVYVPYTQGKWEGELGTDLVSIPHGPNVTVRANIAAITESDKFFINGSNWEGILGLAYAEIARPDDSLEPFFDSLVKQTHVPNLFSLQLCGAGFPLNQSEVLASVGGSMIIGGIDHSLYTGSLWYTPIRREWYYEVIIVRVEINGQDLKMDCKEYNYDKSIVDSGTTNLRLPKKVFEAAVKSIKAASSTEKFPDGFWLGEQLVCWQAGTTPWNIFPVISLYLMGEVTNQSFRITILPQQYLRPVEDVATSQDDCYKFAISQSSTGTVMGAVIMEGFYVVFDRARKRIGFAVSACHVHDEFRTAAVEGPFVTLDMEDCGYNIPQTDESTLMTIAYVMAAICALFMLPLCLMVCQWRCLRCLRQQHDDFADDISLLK

Q: `CN1CCC2(CC1)C(=N)N[C@](C)(c1cc(NC(=O)C(F)F)ccc1F)CS2(=O)=O` was tested. Which Ki (Beta-secretase 2) did it give?
A: 210 nM

Q: And the Ki (Beta-secretase 1)?
A: 1710 nM
